Values quoted from earlier work, collected in US11590211B2, “Systems for treating dermal inflammatory conditions” (Nuvothera, Inc., priority 2016, dated 2023).

Experiments:
NF-κB = details: reference 5
skin cells = details: reference 10
modified mouse tail test = details: reference 7
human keratinocytes = details: through suppression of pro-inflammatory pathways; references 8, 9

For `COc1cc(/C=C/C(=O)CC(=O)/C=C/c2ccc(O)c(OC)c2)ccc1O` [curcumin], the “Activation of NF-κB” value (NF-κB) is given as “down-modulated”, the “Effect on anti-apoptotic function of TNF-α in skin cells” value (skin cells) is given as “reverse the anti-apoptotic function of TNF-α” and the “Activity in the modified mouse tail test” value (modified mouse tail test) is given as “anti-psoriatic activity”. For the same compound, the “Effect on proliferation of human keratinocytes” value (human keratinocytes) was “inhibition of the proliferation”.
